pIC50: −log10 of the molar value. Values belong to the compound of their own block, whether it stands above or below them.
What was measured:
human plasma renin = biological target: T1, human plasma renin (Homo sapiens, UniProt P00797); experiment: Renin inhibiting activities (human plasma, angiotensin I by radioimmunoassay); assay type: biochemical; conditions: pH7.4, 37° C., one hour
T1 construct: from tissue; host or cells: human plasma
T1 sequence (P00797 67-406): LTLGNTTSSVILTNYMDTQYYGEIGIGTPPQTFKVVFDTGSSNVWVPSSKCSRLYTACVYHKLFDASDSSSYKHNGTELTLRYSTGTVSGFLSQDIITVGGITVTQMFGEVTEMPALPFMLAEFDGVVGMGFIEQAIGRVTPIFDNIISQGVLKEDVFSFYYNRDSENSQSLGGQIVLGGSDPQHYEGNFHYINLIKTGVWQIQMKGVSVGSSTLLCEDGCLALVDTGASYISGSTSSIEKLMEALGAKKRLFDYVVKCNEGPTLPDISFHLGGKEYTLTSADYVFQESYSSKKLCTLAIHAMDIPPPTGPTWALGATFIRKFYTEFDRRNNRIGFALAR
Procedure: TEST EXAMPLE 1: Renin inhibiting activities
To 156 μl of a 0.2M sodium phosphate buffer solution (pH7.4), 40 μl of a solution mixture of 34 mM 8-hydroxyquinoline and 100 mM disodium ethylenediamine tetraacetate, 4 μl of dimethyl sulfoxide or a dimethyl sulfoxide solution of an inhibitor and 200 μl of human plasma were added and reacted at 37° C. for one hour. Then, pepstatin was added thereto to terminate the reaction, and the amount of the resulting angiotension I was measured by radio immunoassay whereby the inhibiting activity was determined.

[1] = Absorption test by oral administration in rats (plasma concentration); assay type: in vivo; conditions: rat, rats (n=4), 10 mg/kg oral, read-out: Concentration of the compound in plasma
Procedure: TEST EXAMPLE 2: Absorption test by oral administration
10 mg/kg of the compound of Example 16 was orally administered to rats (n=4), whereupon the concentration of the compound in the plasma was measured. The concentration in the plasma was calculated by the inhibiting activities against human plasma renin.

SMILES: CCCC[C@H](NC(=O)[C@H](Cc1cccc2ccccc12)C[S+]([O-])c1ncccn1)C(=O)N[C@@H](CC(C)C)[C@@H](O)CC(CC)C(=O)NCC(C)C (mixture of isomers) [Example 7, (2RS,4S,5S)-5-{L-N-[(2S)-3-(pyrimidin-2-yl)sulfinyl-2-(1-naphthylmethyl)propionyl]norleucyl}amino-2-ethyl-4-hydroxy-7-methyloctanoic acid isobutylamide]
pIC50 (human plasma renin): 9.08

SMILES: CCC(C[C@H](O)[C@H](CC(C)C)NC(=O)[C@H](Cc1c[nH]cn1)NC(=O)[C@H](Cc1cccc2ccccc12)CS(=O)(=O)CC)C(=O)NCC(C)C (mixture of isomers) [Example 15, (2RS,4S,5S)-5-{L-N^α -[(2S)-3-ethylsulfonyl-2-(1-naphthylmethyl)propionyl]histidyl}amino-2-ethyl-4-hydroxy-7-methyloctanoic acid isobutylamide]
pIC50 (human plasma renin): 9.30

SMILES: CCC(C[C@H](O)[C@H](CC(C)C)NC(=O)[C@H](Cc1c[nH]cn1)NC(=O)[C@H](Cc1cccc2cccnc12)CS(=O)(=O)CC)C(=O)NCC(C)C (stereo partly drawn) [Example 11, (2RS,4S,5S)-5-{L-N^α -[2(S)-3-ethylsulfonyl-2-(8-quinolylmethyl)propionyl]histidyl}amino-2-ethyl-4-hydroxy-7-methyloctanoic acid isobutylamide]
pIC50 (human plasma renin): 8.51

The next lines start with the values.

pIC50 (human plasma renin): 8.47
concentration at 0.5 h ([1]; 1/2 hrs): 267 ng/mL
concentration at 0.25 h ([1]; 1/4 hrs): 212 ng/mL
concentration at 10 min ([1]; 1/6 hrs): 136 ng/mL
concentration at 5 min ([1]; 1/12 hrs): 89 ng/mL
concentration at 1 h ([1]; 1 hr): 183 ng/mL
concentration at 2 h ([1]; 2 hrs): 85 ng/mL
concentration at 4 h ([1]; 4 hrs): 34 ng/mL
concentration at 8 h ([1]; 8 hrs): 12 ng/mL
concentration at 24 h ([1]; 24 hrs): 7 ng/mL
SMILES: CCCC[C@H](NC(=O)C(Cc1cccc2ccccc12)CS(=O)(=O)CC)C(=O)N[C@@H](CC1CCCCC1)[C@@H](O)[C@H](O)CN1CCOCC1 (mixture of isomers) [Example 16, (2RS,3RS,4S)-4-{L-N-[3-ethylsulfonyl-2-(1-naphthylmethyl)propionyl]norleucyl}amino-5-cyclohexyl-1-morpholino-2,3-pentandiol]

pIC50 (human plasma renin): 8.57
SMILES: CCCC[C@H](NC(=O)C(Cc1cccc2ccccc12)CS(=O)(=O)CCO)C(=O)N[C@@H](CC1CCCCC1)[C@@H](O)[C@@H](O)CN1CCOCC1 (single isomer, unassigned) [Example 36, (2S,3R,4S)-4-{L-N-[(2S or R)-3-(2-hydroxyethyl)sulfonyl-2-(1-naphthylmethyl)propionyl]norleucyl}amino-5-cyclohexyl-1-morpholino-2,3-pentanediol]

pIC50 (human plasma renin): 8.72
SMILES: CCCC[C@H](NC(=O)C(CCCS(=O)(=O)CC)Cc1cccc2ccccc12)C(=O)N[C@@H](CC(C)C)[C@@H](O)CC(CC)C(=O)NCC(C)C (single isomer, unassigned) [Example 13, (2RS,4S,5S)-5-{L-N-[(2R or S)-5-ethylsulfonyl-2-(1-naphthylmethyl)pentanoyl]norleucyl}amino-2-ethyl-4-hydroxy-7-methyloctanoic acid isobutylamide]

From patent US5122523A, “N-acylamino acid derivatives and their pharmaceutical compositions” (Banyu Pharmaceutical Co., Ltd., priority 1987, dated 1992)
